The record followed here is ChEMBL document CHEMBL1122200, “Novel opiates and antagonists. 5. 7-Carbethoxy-N-(cycloalkylmethyl)-3-hydroxymorphinan-6-ones and -isomorphinan-6-ones” (1982).

One test has as its system Rattus norvegicus. Nature of the test: Narcotic antagonist activity was measured by rat tail flick procedure after the drug was injected intraperitoneally. The format is functional.
In the next test the test system is Mus musculus. Nature of the test: Analgesic activity by mouse writhing test after subcutaneous injection. The format is functional. On the technique in general: In writhing tests, fewer writhes than in controls are read as antinociception.
Where [1] appears, read: Mus musculus, sc, read-out: ED50.

`CCOC(=O)[C@@H]1CC2C3Cc4ccc(OC)cc4C2(CCN3CC2CC2)CC1=O` (some centres not stated) came in with an AD50 with Rattus norvegicus greater than 3 mg/kg. Also, the ED50 (usually the midpoint of the dose-response relation) in the test with Mus musculus (setting [1]) is greater than 10 mg/kg.

Turning to `COc1ccc2c(c1)C13CCN(C)C(C2)[C@H]1CCC(=O)C3` (some centres not stated), in the test with Mus musculus (setting [1]), the 50% effective dose (ED50) is 1.58 mg/kg.

For the molecule `CCOC(=O)[C@@H]1CC2C3Cc4ccc(O)cc4C2(CCN3C)CC1=O` (some centres not stated), in the test on Mus musculus (setting [1]), the 50% effective dose (ED50) turned out to be 0.72 mg/kg.

In the test with Rattus norvegicus, `CC(C)(O)[C@@H]1CC2C3Cc4ccc(O)cc4C2(CCN3CC2CC2)C[C@@H]1O` (some centres not stated) returned an AD50 greater than 10 mg/kg. Further, the median effective dose (ED50) in the test with Mus musculus (setting [1]) amounted to 6.9 mg/kg.

For `CN1CCC23CC(=O)CC[C@H]2C1Cc1ccc(O)cc13` (some centres not stated), the ED50 in the test on Mus musculus (setting [1]) came out at 0.15 mg/kg.

Consider `O=C1CCC2C3Cc4ccc(O)cc4C2(CCN3CC2CCC2)C1` (cis isomer), for which the AD50 with Rattus norvegicus was greater than 10 mg/kg. The ED50 in the test on Mus musculus (setting [1]) turned out to be 0.017 mg/kg.

The molecule `COc1ccc2c(c1)C13CCN(CC4CCC4)C(C2)C1CCC(=O)C3` (trans isomer) returned an ED50 in the test on Mus musculus of 6.9 mg/kg.

`CC(C)(O)[C@H]1CC2C3Cc4ccc(O)cc4C2(CCN3CC2CC2)C[C@H]1O` (some centres not stated): the AD50 in the test on Rattus norvegicus is greater than 10 mg/kg. Further, in the test with Mus musculus (setting [1]), the ED50 is greater than 10 mg/kg.

The molecule `COc1ccc2c(c1)C13CCN(CC4CC4)C(C2)C1CCC(=O)C3` (trans isomer) showed an AD50 in the test on Rattus norvegicus of 1.3 mg/kg. This molecule came in with an ED50 in the test with Mus musculus greater than 10 mg/kg.

For `CCOC(=O)[C@@H]1CC2C3Cc4ccc(O)cc4C2(CCN3CC2CC2)CC1=O` (some centres not stated), in the test on Mus musculus (setting [1]), the 50% effective dose (ED50) stood at 4.9 mg/kg.

Turning to `CN1CC[C@]23c4c5ccc(O)c4O[C@H]2[C@@H](O)C=C[C@H]3[C@H]1C5.CN1CC[C@]23c4c5ccc(O)c4O[C@H]2[C@@H](O)C=C[C@H]3[C@H]1C5.O=S(=O)(O)O`, the ED50 in the test on Mus musculus (setting [1]) is 0.8 mg/kg.

For `CCOC(=O)[C@@H]1CC2C3Cc4ccc(OC)cc4C2(CCN3C)CC1=O` (some centres not stated), the 50% effective dose (ED50) in the test with Mus musculus (setting [1]) worked out at 4.6 mg/kg.

Take `O=C1CCC2C3Cc4ccc(O)cc4C2(CCN3CC2CC2)C1` (stereo in doubt; 9Ca): the AD50 in the test with Rattus norvegicus worked out at 2.3 mg/kg. In the test on Mus musculus, the median effective dose (ED50) amounted to 1.02 mg/kg.

As for `CCOC(=O)[C@H]1CC2C3Cc4ccc(O)cc4C2(CCN3C)CC1=O` (some centres not stated), the 50% effective dose (ED50) with Mus musculus (setting [1]) stood at 0.6 mg/kg.

In turn, `CCOC(=O)[C@@H]1CC2C3Cc4ccc(OC)cc4C2(CCN3CC2CCC2)CC1=O` (some centres not stated) showed an AD50 in the test on Rattus norvegicus greater than 3 mg/kg. Further, the ED50 with Mus musculus (setting [1]) is greater than 10 mg/kg.

Molecule `CCOC(=O)[C@@H]1CC2C3Cc4ccc(O)cc4C2(CCN3CC2CCC2)CC1=O` (some centres not stated) had an AD50 in the test on Rattus norvegicus greater than 10 mg/kg.

The molecule `COc1ccc2c(c1)C13CCN(CC4CCC4)C(C2)C1CCC(=O)C3` (stereo in doubt; 5Cd) yielded an AD50 in the test with Rattus norvegicus greater than 10 mg/kg. In the test on Mus musculus, this molecule registered an ED50 of 0.22 mg/kg.

For `COc1ccc2c(c1)C13CCN(C)C(C2)[C@@H]1CCC(=O)C3` (some centres not stated), the 50% effective dose (ED50) in the test with Mus musculus (setting [1]) was 0.49 mg/kg.

For the molecule `O=C1CCC2C3Cc4ccc(O)cc4C2(CCN3CC2CC2)C1` (trans isomer), the AD50 in the test on Rattus norvegicus is 0.78 mg/kg. Also, the median effective dose (ED50) in the test on Mus musculus was greater than 10 mg/kg.

Take `CCOC(=O)[C@H]1CC2C3Cc4ccc(OC)cc4C2(CCN3C)CC1=O` (some centres not stated): in the test with Mus musculus (setting [1]), the ED50 was greater than 10 mg/kg.

`CC(C)=CCN1CC[C@]2(C)c3cc(O)ccc3C[C@H]1[C@H]2C` [(+)-PENTAZOCINE] displayed an AD50 in the test with Rattus norvegicus of 10.4 mg/kg. For the same molecule, in the test on Mus musculus (setting [1]), the median effective dose (ED50) amounted to 3.7 mg/kg.

In the case of `C=CCN1CC[C@]23c4c5ccc(O)c4O[C@H]2[C@@H](O)C=C[C@H]3[C@H]1C5` [NALORPHINE], the AD50 in the test on Rattus norvegicus was 0.86 mg/kg.

In the case of `CCOC(=O)[C@H]1CC2C3Cc4ccc(OC)cc4C2(CCN3CC2CC2)CC1=O` (some centres not stated), the AD50 in the test on Rattus norvegicus was greater than 10 mg/kg. Further, the ED50 in the test with Mus musculus (setting [1]) was greater than 10 mg/kg.

As for `COc1ccc2c(c1)C13CCN(CC4CC4)C(C2)C1CCC(=O)C3` (stereo in doubt; 5Cc), in the test with Rattus norvegicus, the AD50 was greater than 3 mg/kg. Also, in the test on Mus musculus, the 50% effective dose (ED50) was found to be 0.24 mg/kg.

For `CN1CCC23CC(=O)CC[C@@H]2C1Cc1ccc(O)cc13` (some centres not stated), the 50% effective dose (ED50) in the test with Mus musculus (setting [1]) was 0.23 mg/kg.
